Test results reported in article PMC11855355, “In-Situ Purification of Non-Ribosomal Peptide Synthetases Assembly Line for Structural and Biochemical Studies” (International Journal of Molecular Sciences, 2025).

Biological target: T1, PvdL (Pseudomonas putida, UniProt Q88F56)
T1 construct: monomer
Assay: LC/HRMS of product N-myristoyl-L-glutamic acid after base hydrolysis
Format: biochemical
Details: 1 uM PvdL, 200 uM myristic acid, 1 mM L-Glu, 5 mM ATP, 10 mM MgCl2, pH 7.6, 25 °C; first two modules; product covalent on PvdL

T1 sequence (Q88F56 1-4317): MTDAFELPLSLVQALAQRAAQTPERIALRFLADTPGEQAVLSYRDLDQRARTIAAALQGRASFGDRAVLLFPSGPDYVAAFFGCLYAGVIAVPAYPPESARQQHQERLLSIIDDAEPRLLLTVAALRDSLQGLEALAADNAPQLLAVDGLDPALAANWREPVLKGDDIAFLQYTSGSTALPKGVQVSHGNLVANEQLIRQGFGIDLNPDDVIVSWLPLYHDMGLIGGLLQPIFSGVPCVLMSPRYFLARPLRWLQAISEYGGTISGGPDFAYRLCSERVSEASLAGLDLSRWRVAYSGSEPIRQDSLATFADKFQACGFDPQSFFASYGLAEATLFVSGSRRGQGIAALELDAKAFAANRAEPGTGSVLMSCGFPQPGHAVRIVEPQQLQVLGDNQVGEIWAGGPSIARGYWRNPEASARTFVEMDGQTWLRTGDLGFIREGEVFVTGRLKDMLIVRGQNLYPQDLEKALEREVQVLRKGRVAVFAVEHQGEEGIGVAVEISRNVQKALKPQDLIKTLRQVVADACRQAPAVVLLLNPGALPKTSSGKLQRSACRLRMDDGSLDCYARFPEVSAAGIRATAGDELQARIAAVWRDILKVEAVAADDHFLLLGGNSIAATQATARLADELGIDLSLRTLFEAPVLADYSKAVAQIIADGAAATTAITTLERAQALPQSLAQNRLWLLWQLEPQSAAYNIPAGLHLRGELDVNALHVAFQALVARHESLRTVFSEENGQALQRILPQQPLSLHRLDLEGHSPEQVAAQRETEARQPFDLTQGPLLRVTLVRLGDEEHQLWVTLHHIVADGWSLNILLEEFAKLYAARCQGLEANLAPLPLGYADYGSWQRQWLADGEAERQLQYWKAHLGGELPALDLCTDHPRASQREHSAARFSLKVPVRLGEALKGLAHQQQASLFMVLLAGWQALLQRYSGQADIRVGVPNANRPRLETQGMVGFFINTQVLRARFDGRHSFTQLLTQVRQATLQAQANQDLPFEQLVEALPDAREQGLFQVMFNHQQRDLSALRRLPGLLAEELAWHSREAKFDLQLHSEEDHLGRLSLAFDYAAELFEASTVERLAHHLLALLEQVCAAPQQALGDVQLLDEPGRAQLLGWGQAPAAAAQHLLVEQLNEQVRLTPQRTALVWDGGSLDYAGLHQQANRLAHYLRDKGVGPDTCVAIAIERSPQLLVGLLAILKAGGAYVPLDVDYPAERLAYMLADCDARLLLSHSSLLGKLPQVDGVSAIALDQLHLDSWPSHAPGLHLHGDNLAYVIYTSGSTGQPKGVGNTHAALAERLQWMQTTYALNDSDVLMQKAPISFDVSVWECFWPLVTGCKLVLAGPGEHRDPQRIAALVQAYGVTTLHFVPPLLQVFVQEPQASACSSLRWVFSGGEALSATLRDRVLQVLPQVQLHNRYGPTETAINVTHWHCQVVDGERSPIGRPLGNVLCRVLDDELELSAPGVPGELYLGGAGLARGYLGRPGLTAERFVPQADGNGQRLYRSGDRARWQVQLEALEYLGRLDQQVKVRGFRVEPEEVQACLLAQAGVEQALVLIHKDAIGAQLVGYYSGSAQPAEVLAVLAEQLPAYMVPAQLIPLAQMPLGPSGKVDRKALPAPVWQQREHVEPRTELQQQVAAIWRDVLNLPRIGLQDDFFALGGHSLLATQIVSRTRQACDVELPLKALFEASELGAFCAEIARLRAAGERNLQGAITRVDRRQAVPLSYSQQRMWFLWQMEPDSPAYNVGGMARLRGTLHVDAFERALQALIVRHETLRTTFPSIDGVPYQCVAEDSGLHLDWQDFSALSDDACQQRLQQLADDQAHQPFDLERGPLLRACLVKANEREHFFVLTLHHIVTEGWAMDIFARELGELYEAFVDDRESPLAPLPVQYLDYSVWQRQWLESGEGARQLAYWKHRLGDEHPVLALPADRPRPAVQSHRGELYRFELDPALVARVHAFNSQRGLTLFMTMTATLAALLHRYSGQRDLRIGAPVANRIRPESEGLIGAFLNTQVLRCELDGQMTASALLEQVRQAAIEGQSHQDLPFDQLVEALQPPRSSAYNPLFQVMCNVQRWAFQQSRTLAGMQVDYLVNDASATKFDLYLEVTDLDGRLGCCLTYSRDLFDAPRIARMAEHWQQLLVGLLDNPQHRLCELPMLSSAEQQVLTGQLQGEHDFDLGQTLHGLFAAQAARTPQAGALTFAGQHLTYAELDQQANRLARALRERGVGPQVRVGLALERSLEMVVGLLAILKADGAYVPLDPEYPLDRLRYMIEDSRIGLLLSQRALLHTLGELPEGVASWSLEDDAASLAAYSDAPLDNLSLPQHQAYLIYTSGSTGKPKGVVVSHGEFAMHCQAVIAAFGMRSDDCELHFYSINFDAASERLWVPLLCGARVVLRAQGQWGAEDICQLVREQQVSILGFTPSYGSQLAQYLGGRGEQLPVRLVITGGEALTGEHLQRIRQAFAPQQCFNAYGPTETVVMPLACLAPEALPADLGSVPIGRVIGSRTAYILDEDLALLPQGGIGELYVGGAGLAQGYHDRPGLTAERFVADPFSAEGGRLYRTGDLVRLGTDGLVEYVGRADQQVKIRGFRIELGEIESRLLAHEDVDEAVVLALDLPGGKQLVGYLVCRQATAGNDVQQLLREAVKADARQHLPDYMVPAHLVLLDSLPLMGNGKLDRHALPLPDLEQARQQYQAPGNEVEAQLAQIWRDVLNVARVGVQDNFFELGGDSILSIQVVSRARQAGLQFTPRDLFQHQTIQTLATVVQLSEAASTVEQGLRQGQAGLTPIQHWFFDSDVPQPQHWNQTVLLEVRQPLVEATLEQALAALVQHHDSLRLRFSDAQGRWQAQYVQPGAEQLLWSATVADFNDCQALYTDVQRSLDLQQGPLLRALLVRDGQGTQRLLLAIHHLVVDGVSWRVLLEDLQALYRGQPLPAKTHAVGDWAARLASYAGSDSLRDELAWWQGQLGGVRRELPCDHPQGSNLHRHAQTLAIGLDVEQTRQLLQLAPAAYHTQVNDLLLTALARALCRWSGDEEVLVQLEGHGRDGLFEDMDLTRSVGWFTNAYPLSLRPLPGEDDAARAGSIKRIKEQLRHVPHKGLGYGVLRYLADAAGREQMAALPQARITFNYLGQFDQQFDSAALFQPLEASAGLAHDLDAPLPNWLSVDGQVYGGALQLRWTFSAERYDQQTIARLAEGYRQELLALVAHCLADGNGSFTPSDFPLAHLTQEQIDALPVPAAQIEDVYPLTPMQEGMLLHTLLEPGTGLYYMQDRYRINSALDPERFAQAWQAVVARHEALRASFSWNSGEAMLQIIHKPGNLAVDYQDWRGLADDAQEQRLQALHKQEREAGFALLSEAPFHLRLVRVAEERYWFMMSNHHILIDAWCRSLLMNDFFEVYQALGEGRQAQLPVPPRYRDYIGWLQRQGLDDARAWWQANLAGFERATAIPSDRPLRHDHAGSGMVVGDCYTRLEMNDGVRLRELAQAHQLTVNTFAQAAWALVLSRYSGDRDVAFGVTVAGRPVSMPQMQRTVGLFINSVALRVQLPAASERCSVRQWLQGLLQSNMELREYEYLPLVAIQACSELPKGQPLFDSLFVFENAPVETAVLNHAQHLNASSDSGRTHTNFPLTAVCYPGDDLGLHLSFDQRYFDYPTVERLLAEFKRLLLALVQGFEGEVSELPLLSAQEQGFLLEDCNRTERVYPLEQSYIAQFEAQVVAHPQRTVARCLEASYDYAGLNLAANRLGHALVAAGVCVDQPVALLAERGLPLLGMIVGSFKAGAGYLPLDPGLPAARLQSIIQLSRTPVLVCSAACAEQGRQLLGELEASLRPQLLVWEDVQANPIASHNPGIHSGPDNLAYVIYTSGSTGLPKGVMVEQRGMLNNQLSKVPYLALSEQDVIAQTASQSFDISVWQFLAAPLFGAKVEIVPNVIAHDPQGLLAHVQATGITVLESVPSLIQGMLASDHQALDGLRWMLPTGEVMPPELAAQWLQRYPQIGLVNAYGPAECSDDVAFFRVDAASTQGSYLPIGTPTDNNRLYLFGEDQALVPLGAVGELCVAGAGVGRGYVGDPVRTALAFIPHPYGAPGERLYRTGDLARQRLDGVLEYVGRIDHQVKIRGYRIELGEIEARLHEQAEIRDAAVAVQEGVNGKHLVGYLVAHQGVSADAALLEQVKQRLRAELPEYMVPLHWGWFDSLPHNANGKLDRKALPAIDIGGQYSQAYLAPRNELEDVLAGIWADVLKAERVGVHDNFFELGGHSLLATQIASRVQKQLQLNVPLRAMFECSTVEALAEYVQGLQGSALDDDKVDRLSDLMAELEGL

N[C@@H](CCC(=O)O)C(=O)O [L-Glu]
LC/HRMS of product N-myristoyl-L-glutamic acid after base hydrolysis: ATP-energy-dependent activation and condensation of myristic acid and glutamic acid
